Experimental data from PMC6535718 (Journal of the American Chemical Society, 2019).
Read-outs that look alike come from different tables or passages of the source.

What was measured:
[1] = test system: P. aeruginosa; settings: cited from earlier work
[2] = test system: P. aeruginosa PAO1; assay: Effect of analogs on the potency of fluoroquinolone antibiotics, strain PAO1; type: cell-based, Pseudomonas aeruginosa; settings: PAO1, ciprofloxacin 0.25 μg/mL, 18 h, M63 + 4 μM Fe
[3] = fluoroquinolone at the reported MIC, Figure 9 legend

SMILES	reported MIC [1]	% survival relative to untreated control, ciprofloxacin only [2]	reported MIC [1, 3]
O=C(O)c1cn(C2CC2)c2cc(N3CCNCC3)c(F)cc2c1=O [ciprofloxacin]	0.25 mg/L	approximately 10%	–
C[C@H]1COc2c(N3CCN(C)CC3)c(F)cc3c(=O)c(C(=O)O)cn1c23 [levofloxacin]	–	–	0.5 mg/L
CCn1cc(C(=O)O)c(=O)c2cc(F)c(N3CCNCC3)cc21 [norfloxacin]	–	–	0.9 mg/L
